Where “and” joins values, the source holds several entries; their conditions need not be identical. Equal entries are not always repeated.
Experiment: an = ratio of the nth substance listed
Conditions: 100 kPa, Liquid, Buoyancy - hydrostatic balance, a2 = 1.7

[F][Al]([F])[F] [aluminum fluoride] + [F-].[K+]
Conditions | mass density
1188.2 K | 1843 kg/m3
1188.4 K | 1842 kg/m3
1188.6 K | 1842 kg/m3
1189.2 K | 1841 kg/m3
1189.7 K | 1841 kg/m3
1189.8 K | 1841 kg/m3
1190.6 K | 1840 kg/m3
1190.7 K | 1840 kg/m3
1190.9 K | 1840 kg/m3
1191.6 K | 1839 kg/m3 and 1840 kg/m3
1191.7 K | 1839 kg/m3
1191.8 K | 1840 kg/m3
1192.2 K | 1839 kg/m3
1192.4 K | 1838 kg/m3
1192.7 K | 1838 kg/m3
1192.8 K | 1838 kg/m3
1193 K | 1839 kg/m3
1193.8 K | 1837 kg/m3
1194 K | 1838 kg/m3
1194.2 K | 1837 kg/m3
1194.6 K | 1837 kg/m3
1194.9 K | 1837 kg/m3
1195.3 K | 1836 kg/m3
1195.6 K | 1835 kg/m3 and 1837 kg/m3
1195.9 K | 1835 kg/m3
1196.1 K | 1836 kg/m3
1196.3 K | 1835 kg/m3
1196.5 K | 1835 kg/m3
1197.1 K | 1835 kg/m3
1197.5 K | 1834 kg/m3
1197.7 K | 1834 kg/m3
1197.8 K | 1834 kg/m3 and 1835 kg/m3
1198.1 K | 1834 kg/m3
1198.4 K | 1833 kg/m3
1198.9 K | 1833 kg/m3
1199.6 K | 1832 kg/m3
1199.9 K | 1833 kg/m3
1200.2 K | 1832 kg/m3
1200.5 K | 1831 kg/m3
1200.7 K | 1832 kg/m3
1200.8 K | 1831 kg/m3 and 1832 kg/m3
1201.4 K | 1830 kg/m3
1201.7 K | 1830 kg/m3 and 1831 kg/m3
1202.1 K | 1831 kg/m3
1202.2 K | 1832 kg/m3
1202.4 K | 1830 kg/m3 and 1831 kg/m3
1202.9 K | 1829 kg/m3 and 1831 kg/m3
1203 K | 1829 kg/m3
1203.6 K | 1829 kg/m3
1203.8 K | 1828 kg/m3
1203.9 K | 1828 kg/m3
1204 K | 1828 kg/m3 and 1829 kg/m3
1204.3 K | 1828 kg/m3
1204.6 K | 1827 kg/m3
1204.7 K | 1827 kg/m3
1205 K | 1826 kg/m3
1205.6 K | 1826 kg/m3
1205.8 K | 1826 kg/m3
1206 K | 1827 kg/m3
1206.3 K | 1826 kg/m3
1206.6 K | 1826 kg/m3
1206.7 K | 1825 kg/m3
1207 K | 1826 kg/m3
1207.1 K | 1825 kg/m3
1207.3 K | 1824 kg/m3
1207.5 K | 1825 kg/m3
1207.6 K | 1824 kg/m3
1207.8 K | 1824 kg/m3
1207.9 K | 1825 kg/m3
1208.2 K | 1824 kg/m3
1208.4 K | 1823 kg/m3
1208.5 K | 1823 kg/m3
1208.7 K | 1822 kg/m3
1209.3 K | 1823 kg/m3
1209.7 K | 1823 kg/m3
1209.8 K | 1823 kg/m3
1210.1 K | 1821 kg/m3
1210.2 K | 1822 kg/m3
1210.5 K | 1821 kg/m3
1211 K | 1822 kg/m3
1211.2 K | 1822 kg/m3
1211.3 K | 1822 kg/m3
1211.4 K | 1821 kg/m3
1211.7 K | 1821 kg/m3 and 1820 kg/m3
1211.8 K | 1822 kg/m3
1211.9 K | 1821 kg/m3 and 1819 kg/m3
1212.3 K | 1820 kg/m3 and 1819 kg/m3
1212.6 K | 1819 kg/m3
1212.9 K | 1820 kg/m3
1213.1 K | 1820 kg/m3
1213.3 K | 1820 kg/m3
1213.5 K | 1819 kg/m3
1213.7 K | 1820 kg/m3
1213.8 K | 1819 kg/m3
1214 K | 1819 kg/m3 and 1818 kg/m3
1214.2 K | 1817 kg/m3
1214.6 K | 1819 kg/m3
1214.7 K | 1819 kg/m3
1215.1 K | 1819 kg/m3
1215.2 K | 1819 kg/m3 and 1816 kg/m3
1215.5 K | 1818 kg/m3
1215.6 K | 1816 kg/m3
1216 K | 1815 kg/m3
1216.7 K | 1814 kg/m3
1217 K | 1814 kg/m3
1217.5 K | 1813 kg/m3
1218.2 K | 1813 kg/m3
1218.7 K | 1812 kg/m3
1219.2 K | 1811 kg/m3 and 1812 kg/m3
1220.3 K | 1810 kg/m3
1220.6 K | 1809 kg/m3
1220.9 K | 1810 kg/m3
1221.8 K | 1809 kg/m3
1222.2 K | 1808 kg/m3
1222.3 K | 1808 kg/m3
1222.7 K | 1807 kg/m3
1223.3 K | 1807 kg/m3
1223.7 K | 1805 kg/m3
1223.8 K | 1806 kg/m3
